Data set [1] has as its target T1, Alpha amylase (Homo sapiens, UniProt P0DUB6).
T1 sequence (P0DUB6 whole entry): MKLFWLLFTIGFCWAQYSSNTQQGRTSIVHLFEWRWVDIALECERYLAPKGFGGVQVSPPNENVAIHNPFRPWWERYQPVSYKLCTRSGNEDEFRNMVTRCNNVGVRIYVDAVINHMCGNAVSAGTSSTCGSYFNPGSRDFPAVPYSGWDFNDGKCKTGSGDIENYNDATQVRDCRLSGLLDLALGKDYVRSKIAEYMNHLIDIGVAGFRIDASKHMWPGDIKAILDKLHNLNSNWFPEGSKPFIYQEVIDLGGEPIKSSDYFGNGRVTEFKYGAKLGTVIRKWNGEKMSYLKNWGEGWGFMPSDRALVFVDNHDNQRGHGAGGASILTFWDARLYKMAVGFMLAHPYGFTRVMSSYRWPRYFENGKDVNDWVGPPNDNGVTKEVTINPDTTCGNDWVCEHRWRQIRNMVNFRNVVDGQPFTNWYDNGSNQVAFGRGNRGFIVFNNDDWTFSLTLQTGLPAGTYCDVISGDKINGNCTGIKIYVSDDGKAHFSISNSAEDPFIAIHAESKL
Description: Inhibition of alpha-amylase (unknown origin) using starch as substrate preincubated for 10 mins followed by substrate addition measured after 10 mins by dinitrosalicylic acid color reagent based assay.

For data set [2], the target named is T1, Alpha amylase. Description: Mixed-type inhibition of alpha-amylase (unknown origin) using p-nitrophenylR-D-maltoside as substrate incubated for 30 mins at 1 min time interval.
In data set [3] the test system is COc1cc(/C=C2/C(=O)N(c3ccc(Cl)cc3)N=C2C)c(OC)cc1Br. Nature of the data set: (§1) Mixed-type inhibition of alpha-amylase (unknown origin) assessed as Vmax for substrate using p-nitrophenylR-D-maltoside as substrate incubated for 30 mins at 1 min time interval. The note with it: Homo sapiens.
Data set [4] relates to COc1cc(/C=C2/C(=O)N(c3ccc(Cl)cc3)N=C2C)ccc1OC(C)=O. The data set is described as §1. The note with it: Homo sapiens.
The subject of data set [5] is CC1=NN(c2ccc(Cl)cc2)C(=O)/C1=C/c1cc(F)ccc1Br. The data set is described as §1. The note with it: Homo sapiens.
The test system of data set [6] is COc1cc(/C=C2/C(=O)N(c3ccc(Cl)cc3)N=C2C)cc(OC)c1Br. The description is as §1. The note with it: Homo sapiens.
In data set [7] the test system is CC1=NN(c2ccc(Cl)cc2)C(=O)/C1=C/c1cc(Cl)cc(Cl)c1O. The data set is described as §1. The conditions noted are these: Homo sapiens.
Data set [8] has as its system COc1ccc(/C=C2/C(=O)N(c3ccc(Cl)cc3)N=C2C)cc1Br. Described as §1. The conditions noted are these: Homo sapiens.
In data set [9] the test system is CC1=NN(c2ccc(Cl)cc2)C(=O)/C1=C/c1ccc(Br)cc1. The description is as §1. The conditions noted are these: Homo sapiens.
Data set [10] deals with COc1ccc(/C=C2/C(=O)N(c3ccc(Cl)cc3)N=C2C)c(Cl)c1OC. The description is as §1. The note with it: Homo sapiens.
Data set [11] concerns COc1cc(/C=C2/C(=O)N(c3ccc(Cl)cc3)N=C2C)c(OC)cc1Br. Nature of the data set: (§2) Mixed-type inhibition of alpha-amylase (unknown origin) assessed as Km for substrate using p-nitrophenylR-D-maltoside as substrate incubated for 30 mins at 1 min time interval. The conditions noted are these: Homo sapiens.
The subject of data set [12] is COc1cc(/C=C2/C(=O)N(c3ccc(Cl)cc3)N=C2C)ccc1OC(C)=O. The description is as §2. The note with it: Homo sapiens.
Data set [13] relates to CC1=NN(c2ccc(Cl)cc2)C(=O)/C1=C/c1cc(F)ccc1Br. Described as §2. The note with it: Homo sapiens.
Data set [14] has as its system COc1cc(/C=C2/C(=O)N(c3ccc(Cl)cc3)N=C2C)cc(OC)c1Br. Described as §2. The note with it: Homo sapiens.
Data set [15] concerns CC1=NN(c2ccc(Cl)cc2)C(=O)/C1=C/c1cc(Cl)cc(Cl)c1O. Described as §2. The conditions noted are these: Homo sapiens.
Data set [16] relates to COc1ccc(/C=C2/C(=O)N(c3ccc(Cl)cc3)N=C2C)cc1Br. The description is as §2. The conditions noted are these: Homo sapiens.
Data set [17] relates to CC1=NN(c2ccc(Cl)cc2)C(=O)/C1=C/c1ccc(Br)cc1. Described as §2. The conditions noted are these: Homo sapiens.
In data set [18] the test system is COc1ccc(/C=C2/C(=O)N(c3ccc(Cl)cc3)N=C2C)c(Cl)c1OC. The description is as §2. The conditions noted are these: Homo sapiens.

Experimental findings from ChEMBL document CHEMBL4265970, “2'-Aryl and 4'-arylidene substituted pyrazolones: As potential α-amylase inhibitors” (Eur J Med Chem, 2018) are described below.

The term IC50 denotes the concentration at which inhibition is half-maximal. The compound `COc1ccc(/C=C2/C(=O)N(c3ccc(Cl)cc3)N=C2C)c(OC)c1OC` had an IC50 against Alpha amylase [1] of 2.1 µM.
What is called Ki is a dissociation constant, usually derived from enzyme kinetics or from competition with a known ligand. A higher Ki goes with weaker binding. `CC1=NN(c2ccc(Cl)cc2)C(=O)/C1=C/c1cc(Cl)cc(Cl)c1O` yielded a Ki on Alpha amylase [2] of 4.26 µM. On Alpha amylase [1], this compound yielded an IC50 of 1.61 µM.
Turning to `CC1=NN(c2ccc(Cl)cc2)C(=O)/C1=C/c1c[nH]c2ccccc12`, the IC50 at Alpha amylase [1] came to 2.16 µM.
Broadly, the Vmax is the top rate of the reaction or transport when substrate is in excess. By Km is commonly meant the concentration of substrate that gives half-maximal velocity. On to “Alpha amylase (Homo sapiens) (from UniProt P0DUB6)”, for which the Vmax was determined as 71.4 µM/min in data set [3]; 70.5 µM/min in data set [4]; 71.2 µM/min in data set [5]; 65.2 µM/min in data set [6]; 79.7 µM/min in data set [7]; 68.3 µM/min in [8]. For the same compound, the Vmax in data set [9] stood at 73.4 µM/min; in [10], 70.6 µM/min. Besides, the Michaelis constant (Km) turned out to be 3.04 mM in data set [11]; 2.9 mM in data set [12]; 3.11 mM in data set [13]; 2.92 mM in data set [14]; 3.4 mM in data set [15]; 2.86 mM in [16]. For the same compound, the Km in [17] is 3.26 mM; in [18], 3.14 mM.
Take `COc1ccc(OC)c(/C=C2/C(=O)N(c3ccc(Cl)cc3)N=C2C)c1`: the 50% inhibitory concentration (IC50) against Alpha amylase [1] turned out to be 2.13 µM. This counts as single-digit micromolar.
At Alpha amylase [2], `COc1cc(/C=C2/C(=O)N(c3ccc(Cl)cc3)N=C2C)c(OC)cc1Br` yielded a Ki of 3.12 µM. For the same compound, the IC50 against Alpha amylase [1] worked out at 1.86 µM.
The corresponding values for `CC1=NN(c2ccc(Cl)cc2)C(=O)/C1=C/c1cc(F)ccc1Br` are 3.42 µM and 1.93 µM.
Take `COc1ccc(/C=C2/C(=O)N(c3ccc(Cl)cc3)N=C2C)c(Cl)c1OC`: the Ki on Alpha amylase [2] turned out to be 3.54 µM. For the same compound, the IC50 against Alpha amylase [1] was found to be 1.97 µM.
In the case of `COc1cc(/C=C2/C(=O)N(c3ccc(Cl)cc3)N=C2C)cc(OC)c1OC`, the half-maximal inhibitory concentration (IC50) on Alpha amylase [1] was 2.19 µM.
For `COc1ccc(/C=C2/C(=O)N(c3ccc(Cl)cc3)N=C2C)cc1Br`, on Alpha amylase [2], the Ki was determined as 3.84 µM. On Alpha amylase [1], this compound returned an IC50 of 1.92 µM.
In turn, `COc1cc(/C=C2/C(=O)N(c3ccc(Cl)cc3)N=C2C)ccc1OC(C)=O` showed a Ki at Alpha amylase [2] of 2.98 µM. On Alpha amylase [1], this compound gave an IC50 of 1.94 µM.
In turn, `COc1ccc(/C=C2/C(=O)N(c3ccc(Cl)cc3)N=C2C)cc1OC` had a half-inhibitory concentration (IC50) against Alpha amylase [1] of 2.03 µM.
Still for that read-out and setting: in the case of `COc1ccc(/C=C2/C(=O)N(c3ccc(Cl)cc3)N=C2C)c(OC)c1` it was 2.01 µM.
`CC1=NN(c2ccc(Cl)cc2)C(=O)/C1=C/c1ccc(Br)cc1` showed a Ki on Alpha amylase [2] of 3.84 µM. This compound also yielded a concentration for half-maximal inhibition (IC50) on Alpha amylase [1] of 1.92 µM.
As for `COc1cc(/C=C2/C(=O)N(c3ccc(Cl)cc3)N=C2C)ccc1OCc1ccccc1`, the IC50 against Alpha amylase [1] was determined as 2.33 µM.
Take `CC1=NN(c2ccc(Cl)cc2)C(=O)/C1=C/c1ccc([N+](=O)[O-])cc1`: at Alpha amylase [1], the 50% inhibitory concentration (IC50) amounted to 2.38 µM.
Regarding `COc1cc(/C=C2/C(=O)N(c3ccc(Cl)cc3)N=C2C)cc(OC)c1`, the IC50 against Alpha amylase [1] is 2.21 µM.
At Alpha amylase [2], `COc1cc(/C=C2/C(=O)N(c3ccc(Cl)cc3)N=C2C)cc(OC)c1Br` registered a Ki of 3.24 µM. Also, the IC50 on Alpha amylase [1] was found to be 1.68 µM.
At Alpha amylase [1], `COc1ccccc1/C=C1/C(=O)N(c2ccc(Cl)cc2)N=C1C` displayed an IC50 of 2.02 µM.
